The NIST ThermoML archive (doi:10.1016/j.tca.2016.01.016)
Where “and” joins values, the source holds several entries; their conditions need not be identical. Equal entries are not always repeated. ± gives the expanded uncertainty stated by the source.

Experiment: molar heat capacity at constant pressure
Conditions: 101.33 kPa, Crystal, Small sample (50 mg) DSC

O=P([O-])([O-])[O-].[Er+3] [erbium phosphate]
Conditions	molar heat capacity at constant pressure
348.15 K	113.7 ± 10 J/K/mol and 113.8 ± 9.2 J/K/mol
353.15 K	114.5 ± 9.5 J/K/mol and 114.6 ± 9.3 J/K/mol
358.15 K	115.2 ± 9.5 J/K/mol and 115.3 ± 9.4 J/K/mol
363.15 K	115.9 ± 9.7 J/K/mol and 116.1 ± 9.4 J/K/mol
368.15 K	116.4 ± 10 J/K/mol and 116.8 ± 9.5 J/K/mol
373.15 K	116.8 ± 11 J/K/mol and 117.4 ± 9.5 J/K/mol
378.15 K	117.4 ± 12 J/K/mol and 118.1 ± 9.6 J/K/mol
383.15 K	118.1 ± 12 J/K/mol and 118.8 ± 9.7 J/K/mol
388.15 K	119.1 ± 12 J/K/mol and 119.4 ± 9.7 J/K/mol
393.15 K	119.9 ± 12 J/K/mol and 120 ± 9.7 J/K/mol
398.15 K	120.7 ± 12 J/K/mol and 120.6 ± 9.8 J/K/mol
403.15 K	121.5 ± 11 J/K/mol and 121.2 ± 9.8 J/K/mol
408.15 K	122.2 ± 11 J/K/mol and 121.8 ± 9.9 J/K/mol
413.15 K	122.9 ± 11 J/K/mol and 122.4 ± 9.9 J/K/mol
418.15 K	123.5 ± 11 J/K/mol and 123 ± 10 J/K/mol
423.15 K	124 ± 11 J/K/mol and 123.5 ± 10 J/K/mol
428.15 K	124.5 ± 12 J/K/mol and 124.1 ± 10 J/K/mol
433.15 K	125 ± 12 J/K/mol and 124.6 ± 10 J/K/mol
438.15 K	125.4 ± 12 J/K/mol and 125.1 ± 10 J/K/mol
443.15 K	125.9 ± 12 J/K/mol and 125.6 ± 10 J/K/mol
448.15 K	126.4 ± 12 J/K/mol and 126.1 ± 10 J/K/mol
453.15 K	126.9 ± 12 J/K/mol and 126.6 ± 10 J/K/mol
458.15 K	127.4 ± 12 J/K/mol and 127.1 ± 10 J/K/mol
463.15 K	127.8 ± 12 J/K/mol and 127.6 ± 10 J/K/mol
468.15 K	128.2 ± 13 J/K/mol and 128 ± 10 J/K/mol
473.15 K	128.7 ± 13 J/K/mol and 128.5 ± 10 J/K/mol
478.15 K	129.1 ± 13 J/K/mol and 129 ± 10 J/K/mol
483.15 K	129.5 ± 13 J/K/mol and 129.4 ± 10 J/K/mol
488.15 K	129.9 ± 13 J/K/mol and 129.8 ± 10 J/K/mol
493.15 K	130.3 ± 13 J/K/mol and 130.3 ± 11 J/K/mol
498.15 K	130.7 ± 13 J/K/mol and 130.7 ± 11 J/K/mol
503.15 K	131.1 ± 13 J/K/mol and 131.1 ± 11 J/K/mol
508.15 K	131.5 ± 13 J/K/mol and 131.5 ± 11 J/K/mol
513.15 K	132 ± 13 J/K/mol and 131.9 ± 11 J/K/mol
518.15 K	132.4 ± 13 J/K/mol and 132.3 ± 11 J/K/mol
523.15 K	132.8 ± 13 J/K/mol and 132.7 ± 11 J/K/mol
528.15 K	133.2 ± 12 J/K/mol and 133.1 ± 11 J/K/mol
533.15 K	133.6 ± 12 J/K/mol and 133.4 ± 11 J/K/mol
538.15 K	134 ± 12 J/K/mol and 133.8 ± 11 J/K/mol
543.15 K	134.5 ± 12 J/K/mol and 134.2 ± 11 J/K/mol
548.15 K	134.8 ± 12 J/K/mol and 134.5 ± 11 J/K/mol
553.15 K	135.1 ± 12 J/K/mol and 134.9 ± 11 J/K/mol
558.15 K	135.4 ± 12 J/K/mol and 135.2 ± 11 J/K/mol
563.15 K	135.8 ± 12 J/K/mol and 135.6 ± 11 J/K/mol
568.15 K	136.1 ± 12 J/K/mol and 135.9 ± 11 J/K/mol
573.15 K	136.3 ± 12 J/K/mol and 136.2 ± 11 J/K/mol
578.15 K	136.6 ± 12 J/K/mol and 136.6 ± 11 J/K/mol
583.15 K	136.9 ± 12 J/K/mol and 136.9 ± 11 J/K/mol
588.15 K	137.2 ± 12 J/K/mol and 137.2 ± 11 J/K/mol
593.15 K	137.5 ± 12 J/K/mol and 137.5 ± 11 J/K/mol
598.15 K	137.8 ± 12 J/K/mol and 137.8 ± 11 J/K/mol
603.15 K	138 ± 12 J/K/mol and 138.1 ± 11 J/K/mol
608.15 K	138.3 ± 12 J/K/mol and 138.4 ± 11 J/K/mol
613.15 K	138.6 ± 12 J/K/mol and 138.7 ± 11 J/K/mol
618.15 K	138.8 ± 12 J/K/mol and 139 ± 11 J/K/mol
623.15 K	139 ± 12 J/K/mol and 139.3 ± 11 J/K/mol
628.15 K	139.3 ± 12 J/K/mol and 139.6 ± 11 J/K/mol
633.15 K	139.6 ± 12 J/K/mol and 139.9 ± 11 J/K/mol
638.15 K	139.8 ± 12 J/K/mol and 140.2 ± 11 J/K/mol
643.15 K	140.1 ± 12 J/K/mol and 140.4 ± 11 J/K/mol
648.15 K	140.3 ± 12 J/K/mol and 140.7 ± 11 J/K/mol
653.15 K	140.6 ± 11 J/K/mol and 141 ± 12 J/K/mol
658.15 K	140.9 ± 11 J/K/mol and 141.3 ± 12 J/K/mol
663.15 K	141.2 ± 11 J/K/mol and 141.5 ± 12 J/K/mol
668.15 K	141.4 ± 11 J/K/mol and 141.8 ± 12 J/K/mol
673.15 K	141.6 ± 10 J/K/mol and 142 ± 12 J/K/mol
678.15 K	141.8 ± 10 J/K/mol and 142.3 ± 12 J/K/mol
683.15 K	142.1 ± 9.8 J/K/mol and 142.5 ± 12 J/K/mol
688.15 K	142.3 ± 9.4 J/K/mol and 142.8 ± 12 J/K/mol
693.15 K	142.6 ± 9.2 J/K/mol and 143 ± 12 J/K/mol
698.15 K	142.9 ± 8.8 J/K/mol and 143.3 ± 12 J/K/mol
703.15 K	143.1 ± 8.4 J/K/mol and 143.5 ± 12 J/K/mol
708.15 K	143.5 ± 8.3 J/K/mol and 143.8 ± 12 J/K/mol
713.15 K	143.7 ± 8.1 J/K/mol and 144 ± 12 J/K/mol
718.15 K	143.9 ± 7.9 J/K/mol and 144.2 ± 12 J/K/mol
723.15 K	144.2 ± 7.7 J/K/mol and 144.4 ± 12 J/K/mol
728.15 K	144.4 ± 7.5 J/K/mol and 144.7 ± 12 J/K/mol
733.15 K	144.6 ± 7.5 J/K/mol and 144.9 ± 12 J/K/mol
738.15 K	144.8 ± 7.5 J/K/mol and 145.1 ± 12 J/K/mol
743.15 K	145 ± 7.5 J/K/mol and 145.3 ± 12 J/K/mol
748.15 K	145.2 ± 7.5 J/K/mol and 145.6 ± 12 J/K/mol
753.15 K	145.5 ± 7.3 J/K/mol and 145.8 ± 12 J/K/mol
758.15 K	145.8 ± 7.1 J/K/mol and 146 ± 12 J/K/mol
763.15 K	146.1 ± 6.9 J/K/mol and 146.2 ± 12 J/K/mol
768.15 K	146.3 ± 6.7 J/K/mol and 146.4 ± 12 J/K/mol
773.15 K	146.5 ± 6.5 J/K/mol and 146.6 ± 12 J/K/mol
778.15 K	146.8 ± 6.3 J/K/mol and 146.8 ± 12 J/K/mol
783.15 K	147 ± 6.2 J/K/mol and 147 ± 12 J/K/mol
788.15 K	147.2 ± 6 J/K/mol and 147.2 ± 12 J/K/mol
793.15 K	147.5 ± 5.6 J/K/mol and 147.4 ± 12 J/K/mol
798.15 K	147.8 ± 5.4 J/K/mol and 147.6 ± 12 J/K/mol
803.15 K	148 ± 5.2 J/K/mol and 147.8 ± 12 J/K/mol
808.15 K	148.2 ± 5.1 J/K/mol and 148 ± 12 J/K/mol
813.15 K	148.5 ± 5.1 J/K/mol and 148.2 ± 12 J/K/mol
818.15 K	148.7 ± 4.9 J/K/mol and 148.4 ± 12 J/K/mol
823.15 K	148.9 ± 4.9 J/K/mol and 148.5 ± 12 J/K/mol
828.15 K	149.1 ± 4.7 J/K/mol and 148.7 ± 12 J/K/mol
833.15 K	149.3 ± 4.7 J/K/mol and 148.9 ± 12 J/K/mol
838.15 K	149.5 ± 4.7 J/K/mol and 149.1 ± 12 J/K/mol
843.15 K	149.7 ± 4.5 J/K/mol and 149.3 ± 12 J/K/mol
848.15 K	149.9 ± 4.4 J/K/mol and 149.5 ± 12 J/K/mol
853.15 K	150.2 ± 4.5 J/K/mol and 149.6 ± 12 J/K/mol
858.15 K	150.3 ± 4.5 J/K/mol and 149.8 ± 12 J/K/mol
863.15 K	150.5 ± 4.5 J/K/mol and 150 ± 12 J/K/mol
868.15 K	150.8 ± 4.7 J/K/mol and 150.1 ± 12 J/K/mol
